This passage reports EC50 and CC50 results from patent US10954252B1, “Inhibitors of human immunodeficiency virus replication” (ViiV HEALTHCARE UK (NO.5) LIMITED, priority 2017, dated 2021).

Where a name gives a salt, the structure may show the parent alone.

Data set [1] concerns recombinant NL4-3 virus (nef section replaced with Renilla luciferase gene) in MT-2 cells. The data set is described as follows: HIV cell culture assay (antiviral activity, luciferase readout). The format is cell-based. Particulars: MT-2 cells infected for 4-5 days with recombinant NL4-3 luciferase virus. A digest of the protocol: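 NL4-3 reporter virus carrying Renilla luciferase in place of part of nef, produced in 293T cells, was used to infect MT-2 cells for 4-5 days with serial compound dilutions. Luciferase activity was read with a live-cell substrate; EC50 derived from the median effect equation.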

A short description of data set [2]: Compound cytotoxicity, XTT-based colorimetric assay. The format is cell-based. Particulars: human, uninfected MT2 cells. The procedure, abridged:
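CC50 from uninfected MT2 cells run under the antiviral-assay protocol without virus. Viability read on day 4 by XTT colorimetric assay.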
In general terms: Tetrazolium dyes change colour on reduction, which living cells bring about.

Usually EC50 stands for the concentration needed to bring the measured effect to its halfway point. A word on the CC50: it is the concentration at which the toxic effect on the cells reaches its halfway point. A higher CC50 goes with lower toxicity to the cells. With `COc1ccc(-n2c([C@H](Cc3cc(F)cc(F)c3)NC(=O)Cc3c[nH]c4ccc(O)cc34)nc3ncccc3c2=O)cc1` [Example 9.2, (S)—N-(2-(3,5-difluorophenyl)-1-(3-(4-methoxyphenyl)-4-oxo-3,4-dihydropyrido[2,3-d]pyrimidin-2-yl)ethyl)-2-(5-hydroxy-1H-indol-3-yl)acetamide], the EC50 in data set [1] (Renilla, NL43, Table 1) was found to be 4.7 nM. The compound further returned a CC50 at 4 days in data set [2] (Table 1, day 4, XTT) of over 10000 nM.

In the case of `Cn1nc(NS(C)(=O)=O)c2c(Cl)ccc(-n3c([C@H](Cc4cc(F)cc(F)c4)NC(=O)Cn4nc(C(F)F)c5c4CCC5)nc4ncccc4c3=O)c21` (single isomer, unassigned) [Example 46.1], in data set [1] (Renilla, NL43, Table 1a), the concentration giving a half-maximal response (EC50) was determined as 10.3 nM. Moreover, the CC50 at 4 days in data set [2] (Table 1a, day 4, XTT) is over 1000 nM.

Consider `O=C(Cn1nc(C(F)F)c2c1C(F)(F)[C@@H]1C[C@H]21)N[C@@H](Cc1cc(F)cc(F)c1)c1nc2cn[nH]c2cc1-c1cccc2c1CNC2=O` [Example 10.13, 2-((3bS,4aR)-3-(difluoromethyl)-5,5-difluoro-3b,4,4a,5-tetrahydro-1H-cyclopropa[3,4]cyclopenta[1,2-c]pyrazol-1-yl)-N—((S)-2-(3,5-difluorophenyl)-1-(6-(1-oxoisoindolin-4-yl)-1H-pyrazolo[4,3-b]pyridin-5-yl)ethyl)acetamide], for which the EC50 in data set [1] (Renilla, NL43, Table 1) turned out to be 12 nM. In data set [2] (Table 1, day 4, XTT), this compound displayed a CC50 at 4 days of over 10000 nM.

Regarding `COC(=O)c1cc(-c2cc3[nH]ncc3nc2[C@H](Cc2cc(F)cc(F)c2)NC(=O)Cn2nc(C(F)F)c3c2C(F)(F)[C@@H]2C[C@H]32)ccc1Cl` [Example 10.9, Methyl 2-chloro-5-(5-((S)-1-(2-((3bS,4aR)-3-(difluoromethyl)-5,5-difluoro-3b,4,4a,5-tetrahydro-1H-cyclopropa[3,4]cyclopenta[1,2-c]pyrazol-1-yl)acetamido)-2-(3,5-difluorophenyl)ethyl)-1H-pyrazolo[4,3-b]pyridin-6-yl)benzoate], in data set [1] (Renilla, NL43, Table 1), the EC50 is 1080 nM. Besides, in data set [2] (Table 1, day 4, XTT), the CC50 at 4 days worked out at 8950 nM.

`O=C(Cn1nc(C(F)F)c2c1C(F)(F)[C@@H]1C[C@H]21)N[C@@H](Cc1cc(F)cc(F)c1)c1nc2cn[nH]c2cc1-c1ccc(S(=O)(=O)N2CCOCC2)cc1` [Example 25, 2-((3bS,4aR)-3-(difluoromethyl)-5,5-difluoro-3b,4,4a,5-tetrahydro-1H-cyclopropa[3,4]cyclopenta[1,2-c]pyrazol-1-yl)-N—((S)-2-(3,5-difluorophenyl)-1-(6-(4-(morpholinosulfonyl)phenyl)-1H-pyrazolo[4,3-b]pyridin-5-yl)ethyl)acetamide]: the EC50 in data set [1] (Renilla, NL43, Table 1a) came out at 5.78 nM. The compound further returned a CC50 at 4 days in data set [2] (Table 1a, day 4, XTT) of 7940 nM.

As to `CC(C)S(=O)(=O)NC(=O)c1cc(-c2cc3[nH]ncc3nc2[C@H](Cc2cc(F)cc(F)c2)NC(=O)Cn2nc(C(F)F)c3c2C(F)(F)[C@@H]2C[C@H]32)ccc1F` [Example 10.27, 5-(5-((S)-1-(2-((3bS,4aR)-3-(difluoromethyl)-5,5-difluoro-3b,4,4a,5-tetrahydro-1H-cyclopropa[3,4]cyclopenta[1,2-c]pyrazol-1-yl)acetamido)-2-(3,5-difluorophenyl)ethyl)-1H-pyrazolo[4,3-b]pyridin-6-yl)-2-fluoro-N-(isopropylsulfonyl)benzamide], in data set [1] (Renilla, NL43, Table 1), the EC50 was 820 nM. In addition, in data set [2] (Table 1, day 4, XTT), the cytotoxic concentration (CC50) at 4 days is over 10000 nM.

On to `O=C(Cn1nc(C(F)F)c2c1C(F)(F)[C@@H]1C[C@H]21)N[C@@H](Cc1cc(F)cc(F)c1)c1nc2cn[nH]c2cc1-c1ccc(Cl)c(C(=O)O)c1` [Example 10.11, 2-Chloro-5-(5-((S)-1-(2-((3bS,4aR)-3-(difluoromethyl)-5,5-difluoro-3b,4,4a,5-tetrahydro-1H-cyclopropa[3,4]cyclopenta[1,2-c]pyrazol-1-yl)acetamido)-2-(3,5-difluorophenyl)ethyl)-1H-pyrazolo[4,3-b]pyridin-6-yl)benzoic acid], for which, in data set [1] (Renilla, NL43, Table 1), the half-maximal effective concentration (EC50) is 810 nM. Besides, the CC50 at 4 days in data set [2] (Table 1, day 4, XTT) is over 10000 nM.

Consider `Cn1nc(NS(C)(=O)=O)c2c(Cl)ccc(-c3nc4ccccc4nc3[C@@H](Cc3cc(F)cc(F)c3)NC(=O)Cn3nc(C(F)F)c4c3C(F)(F)[C@@H]3C[C@H]43)c21` [Example 155, N—((R)-1-(3-(4-chloro-1-methyl-3-(methylsulfonamido)-1H-indazol-7-yl)quinoxalin-2-yl)-2-(3,5-difluorophenyl)ethyl)-2-((3bS,4aR)-3-(difluoromethyl)-5,5-difluoro-3b,4,4a,5-tetrahydro-1H-cyclopropa[3,4]cyclopenta[1,2-c]pyrazol-1-yl)acetamide], for which the EC50 in data set [1] (Renilla, NL43, Table 1a) amounted to 35.8 nM. In addition, in data set [2] (Table 1a, day 4, XTT), the CC50 at 4 days is over 10000 nM.

`O=C(Cn1nc(C(F)F)c2c1C(F)(F)[C@@H]1C[C@H]21)N[C@@H](Cc1cc(F)cc(F)c1)c1nc2cc[nH]c2cc1-c1ccc(S(=O)(=O)N2CCOCC2)cc1` [Example 65, 2-((3bS,4aR)-3-(difluoromethyl)-5,5-difluoro-3b,4,4a,5-tetrahydro-1H-cyclopropa[3,4]cyclopenta[1,2-c]pyrazol-1-yl)-N—((S)-2-(3,5-difluorophenyl)-1-(6-(4-(morpholinosulfonyl)phenyl)-1H-pyrrolo[3,2-b]pyridin-5-yl)ethyl)acetamide]: the EC50 in data set [1] (Renilla, NL43, Table 1a) stood at 2.03 nM. This compound also came in with a CC50 at 4 days in data set [2] (Table 1a, day 4, XTT) of 2000 nM.

Take `Cn1nc(NS(C)(=O)=O)c2c(Cl)ccc(-n3c([C@H](Cc4cc(F)cc(F)c4)NC(=O)Cn4nc(C(F)F)c5c4C(F)(F)[C@@H]4C[C@H]54)nc4cc(CS(C)(=O)=O)ccc4c3=O)c21` (mixture of isomers) [Example 201, N—((S)-1-(3-(4-chloro-1-methyl-3-(methylsulfonamido)-1H-indazol-7-yl)-7-((methylsulfonyl)methyl)-4-oxo-3,4-dihydroquinazolin-2-yl)-2-(3,5-difluorophenyl)ethyl)-2-((3bS,4aR)-3-(difluoromethyl)-5,5-difluoro-3b,4,4a,5-tetrahydro-1H-cyclopropa[3,4]cyclopenta[1,2-c]pyrazol-1-yl)acetamide]: the EC50 in data set [1] (Table 1a) stood at 71.8 nM. The CC50 at 4 days in data set [2] (Table 1a, day 4, XTT) is over 1000 nM.

As for `Cn1nc(NS(C)(=O)=O)c2cccc(-n3c(C(Cc4cc(F)cc(F)c4)NC(=O)Cn4nc(C(F)F)c5c4C(F)(F)[C@@H]4C[C@H]54)nc4ccccc4c3=O)c21` (single isomer, unassigned) [Example 69], in data set [1] (Renilla, NL43, Table 1a), the EC50 is 78.3 nM. In data set [2] (Table 1a, day 4, XTT), this compound yielded a CC50 at 4 days of over 1000 nM.

With `Cn1nc(NS(C)(=O)=O)c2c(Cl)ccc(-n3c([C@H](Cc4cc(F)cc(F)c4)NC(=O)Cn4nc(C(F)F)c5c4C(F)(F)[C@@H]4C[C@H]54)nc4c(F)ccc(F)c4c3=O)c21` (single isomer, unassigned) [Example 147], the EC50 in data set [1] (Table 1a) worked out at 27.9 nM. In addition, the CC50 at 4 days in data set [2] (Table 1a, day 4, XTT) is over 1000 nM.

With `Cn1nc(NS(C)(=O)=O)c2c(Cl)ccc(-n3c([C@H](Cc4cc(F)cc(F)c4)NC(=O)Cn4nc(C(F)(F)F)c5c4CCC5)nc4ncccc4c3=O)c21` [Example 52, N-[(1S)-1-[3-(4-chloro-3-methanesulfonamido-1-methyl-1H-indazol-7-yl)-4-oxo-3H,4H-pyrido[2,3-d]pyrimidin-2-yl]-2-(3,5-difluorophenyl)ethyl]-2-[3-(trifluoromethyl)-1H,4H,5H,6H-cyclopenta[c]pyrazol-1-yl]acetamide], in data set [1] (Renilla, NL43, Table 1a), the EC50 came out at 0.039 nM. The compound further came in with a CC50 at 4 days in data set [2] (Table 1a, day 4, XTT) of over 1000 nM.

Turning to `COc1cccc2nc([C@H](Cc3cc(F)cc(F)c3)NC(=O)Cn3nc(C(F)F)c4c3C(F)(F)[C@@H]3C[C@H]43)n(-c3ccc(Cl)c4c(NS(C)(=O)=O)nn(C)c34)c(=O)c12` (mixture of isomers) [Example 169, N—((S)-1-(3-(4-chloro-1-methyl-3-(methylsulfonamido)-1H-indazol-7-yl)-5-methoxy-4-oxo-3,4-dihydroquinazolin-2-yl)-2-(3,5-difluorophenyl)ethyl)-2-((3bS,4aR)-3-(difluoromethyl)-5,5-difluoro-3b,4,4a,5-tetrahydro-1H-cyclopropa[3,4]cyclopenta[1,2-c]pyrazol-1-yl)acetamide], the EC50 in data set [1] (Table 1a) came to 119 nM. The compound also registered a CC50 at 4 days in data set [2] (Table 1a, day 4, XTT) of over 1000 nM.

Consider `CC(C)(c1ccc2c(=O)n(-c3ccc(Cl)c4c(NS(=O)(=O)C5CC5)nn(CC(F)F)c34)c([C@H](Cc3cc(F)cc(F)c3)NC(=O)Cn3nc(C(F)F)c4c3C(F)(F)[C@@H]3C[C@H]43)nc2c1)S(C)(=O)=O` [Example 214, N—((S)-1-(3-(4-chloro-3-(cyclopropanesulfonamido)-1-(2,2-difluoroethyl)-1H-indazol-7-yl)-7-(2-(methylsulfonyl)propan-2-yl)-4-oxo-3,4-dihydroquinazolin-2-yl)-2-(3,5-difluorophenyl)ethyl)-2-((3bS,4aR)-3-(difluoromethyl)-5,5-difluoro-3b,4,4a,5-tetrahydro-1H-cyclopropa[3,4]cyclopenta[1,2-c]pyrazol-1-yl)acetamide, TFA], for which the EC50 in data set [1] (Renilla, NL43, Table 1a) was determined as 0.071 nM. In data set [2] (Table 1a, day 4, XTT), this compound yielded a half-maximal cytotoxic concentration (CC50) at 4 days of over 1000 nM.

Take `COc1ccc(-n2c([C@H](Cc3cc(F)cc(F)c3)NC(=O)Cn3nc(C(F)F)c4c3C(F)(F)[C@@H]3C[C@H]43)nc3ncccc3c2=O)cc1` [Example 9.1, 2-((3bS,4aR)-3-(difluoromethyl)-5,5-difluoro-3b,4,4a,5-tetrahydro-1H-cyclopropa[3,4]cyclopenta[1,2-c]pyrazol-1-yl)-N—((S)-2-(3,5-difluorophenyl)-1-(3-(4-methoxyphenyl)-4-oxo-3,4-dihydropyrido[2,3-d]pyrimidin-2-yl)ethyl)acetamide]: the half-maximal effective concentration (EC50) in data set [1] (Renilla, NL43, Table 1) came to 6.1 nM. In data set [2] (Table 1, day 4, XTT), this compound gave a CC50 at 4 days of 8100 nM.

Take `COc1c(F)cc2c(=O)n(-c3ccc(Cl)c4c(NS(C)(=O)=O)nn(C)c34)c([C@H](Cc3cc(F)cc(F)c3)NC(=O)Cn3ccc(C4CC4)n3)nc2c1F` (single isomer, unassigned) [Example 115]: in data set [1] (Table 1a), the EC50 amounted to 68.4 nM. For the same compound, the CC50 at 4 days in data set [2] (Table 1a, day 4, XTT) is over 1000 nM.
